Data on 10 compounds can be found in PMC11562385 (RSC Chemical Biology, 2024).

In one series the target is T1, PD1:PDL1 interaction (Homo sapiens, UniProt Q15116).
T1 construct: purchased BPS Bioscience 72005
Kind of series: PD1/PDL1 immunoblocking ELISA (BPS Bioscience kit cat # 72005). In kind it is binding. Here is the method: Original loops with Phe/Trp and their Gly-derived analogs. Experimental EC50 values from inhibitory dose–response curves. Error bars indicate the mean ± SD, (n = 3). […]
SDS -Pages, buffers, and stain were purchased from Fisher
8. Immunoblocking ELISA Assay
Peptide inhibitor stock solutions were prepared in the concentration range of approximately 1-5 mM in DMSO. […]
plate was then washed and blocked with blocking buffer for 1 h at room temperature. Inhibitor solutions (ranging from 0.01 to 100 μM) and a blank solution (DMSO/PBS buffer) were added to designated wells. To initiate the […]
inhibitor solutions. After a 2 h incubation at room temperature, the plate was washed and blocked again for 10 min. Streptavidin-HRP (diluted at 1 : 1000) was added and incubated for 1 h at room temperature with gentle shaking. The plate was washed and blocked once more for 10 min. ELISA ECL substrate was added, and the resulting chemoluminescence was immediately measured in a luminometer (FLUOstar OPTIMA, BMG Labtech).
The luminescence value of the blank was subtracted from all readings according to the manufacturer's

Series [1] can be described thus: Variable-temperature CD melting curves (CD-melts at 228±2 nm and 202±2 nm), individual and global two-state fits. It is filed as physicochemical. On the procedure:
Recently, our laboratory brought forward a novel synthetic technology for the synthesis of acyclic β-hairpins with long loops. […] To compare hairpins’ stability, both regular (R) and bulged (B) scaffolds were crafted around a flexible 10-residue model loop (G4K2G4) and analyzed by CD (circular dichroism) spectroscopy (Fig. 2(A), see ESI, ^† Table S5). The […] structure of these model scaffolds 1avs.2a in solution were recorded in the far-UV CD spectra. […] The CD-exciton intensity was therefore used as a global probe to determine the %-folding of ADAPTins and to obtain melting curves corresponding to the hairpin fraying mechanism upon a gradual increase of temperature (0 to 95 °C).[68] […] In addition, NMR (nuclear magnetic resonance) chemical shifts were measured to determine variations in backbone […] structures (Fig. 2(B)). Secondary chemical shift deviations (CSDs) were calculated against random coil values[69] for both ADAPTin scaffolds 1vs.2 to verify that the hairpins were folded and if any variation of conformational rigidity exist within the loops. […]
Mass Spectrometer coupled to a Vanquish™ Neo UHPLC System (Thermo Scientific™). Peptide solutions for circular dichroism (CD) were prepared within a concentration range of 15-120 µM in a phosphate buffer (15 mM, […]
measured accurately using a JASCO V-670 spectrophotometer relied on the combined molar absorptivity of Trp (ε280 = 5580 M-1 .cm-1 per Trp) and Tyr (ε280 = 1280 M-1 .cm-1 per Tyr) to determine each sample's concentration.
CD spectra were recorded using a JASCO J-810 Spectropolarimeter equipped with a temperature controller module JASCO PFD-425S. Raw CD melting curves were processed in SpectraGryph, and fitting was performed in OriginPro 9.0 (Originlab Corporation, U.S.A.). NMR samples were prepared by reconstituting freeze -dried peptides (~ 1-5 mg) in mixture of water and DMSO -d6 (90:10 v/v) using 2,2-dimethyl-2-silapentane-5-sulfonate (DSS) as internal standard for chemical shifts (0 ppm), and spectra were recorded at 291 K (18 °C) unless otherwise stated. Chemical shifts ( δ) are reported in ppm. Samples for NMR experiments were prepared in a range of 3-10 mM of peptide in solution unless otherwise noted.

The mark [2] stands for this setting: ELISA, mean of three independent experiments, read-out: EC50 Value.
[3] abbreviates: xlsx sheet of the peptide, individual fit of CD-melt.

Read-outs that look alike come from different tables or passages of the source. Square brackets hold non-standard residues; d marks the D form. Peptide text beside a SMILES is read from it. * marks the point of attachment. Methacryloyl = C=C(C)C(=O)*; Dab = NCC[C@H](N)C(=O)O; Dap = NC[C@H](N)C(=O)O; Acryloyl = C=CC(=O)*

T1 sequence (Q15116 25-167 limits assumed): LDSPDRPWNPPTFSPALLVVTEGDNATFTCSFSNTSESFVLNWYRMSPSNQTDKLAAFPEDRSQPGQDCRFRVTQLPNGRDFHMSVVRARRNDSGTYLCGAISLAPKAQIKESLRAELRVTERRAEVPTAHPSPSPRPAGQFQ

On to `C=CC(=O)NCC[C@H](NC(=O)[C@H](CC(=O)O)NC(=O)[C@H](Cc1ccccc1)NC(=O)[C@H](CCCNC(=N)N)NC(=O)[C@H](Cc1ccc(O)cc1)NC(=O)[C@H](CC(=O)O)NC(=O)[C@H](CCCNC(=N)N)NC(=O)[C@H](CCCNC(=N)N)NC(=O)[C@H](C)NC(=O)[C@@H](NC(=O)[C@H](Cc1c[nH]c2ccccc12)NC(=O)[C@@H](N)CCCNC(=N)N)C(C)C)C(=O)NCC(=O)N[C@@H](Cc1ccccc1)C(=O)N[C@@H](CC(=O)O)C(=O)N[C@@H](Cc1ccc(O)cc1)C(=O)N[C@@H](Cc1c[nH]c2ccccc12)C(=O)N[C@H](C(=O)N[C@@H](Cc1c[nH]c2ccccc12)C(=O)N[C@@H](CCC(=O)O)C(=O)O)C(C)C` [2ca] (H-RWVARRDYRFD[Dab](Acryloyl)GFDYWVWE-OH), for which the EC50 at PD1:PDL1 interaction (setting [2]) is 5.22 µM.

As for `C=CC(=O)NC[C@H](NC(=O)[C@H](CC(=O)O)NC(=O)[C@H](Cc1ccccc1)NC(=O)[C@H](CCCNC(=N)N)NC(=O)[C@H](Cc1ccc(O)cc1)NC(=O)[C@H](CC(=O)O)NC(=O)[C@H](CCCNC(=N)N)NC(=O)[C@H](CCCNC(=N)N)NC(=O)[C@H](C)NC(=O)[C@@H](NC(=O)[C@H](Cc1c[nH]c2ccccc12)NC(=O)[C@@H](N)CCCNC(=N)N)C(C)C)C(=O)NCC(=O)N[C@@H](Cc1ccccc1)C(=O)N[C@@H](CC(=O)O)C(=O)N[C@@H](Cc1ccc(O)cc1)C(=O)N[C@@H](Cc1c[nH]c2ccccc12)C(=O)N[C@H](C(=O)N[C@@H](Cc1c[nH]c2ccccc12)C(=O)N[C@@H](CCC(=O)O)C(=O)O)C(C)C` [2cb] (H-RWVARRDYRFD[Dap](Acryloyl)GFDYWVWE-OH), the EC50 at PD1:PDL1 interaction (setting [2]) came out at 3.98 µM.

`C=C(C)C(=O)NCC[C@H](NC(=O)[C@H](CC(=O)O)NC(=O)[C@H](Cc1ccccc1)NC(=O)[C@H](CCCNC(=N)N)NC(=O)[C@H](Cc1ccc(O)cc1)NC(=O)[C@H](CC(=O)O)NC(=O)[C@H](CCCNC(=N)N)NC(=O)[C@H](CCCNC(=N)N)NC(=O)[C@H](C)NC(=O)[C@@H](NC(=O)[C@H](Cc1c[nH]c2ccccc12)NC(=O)[C@@H](N)CCCNC(=N)N)C(C)C)C(=O)NCC(=O)N[C@@H](Cc1ccccc1)C(=O)N[C@@H](CC(=O)O)C(=O)N[C@@H](Cc1ccc(O)cc1)C(=O)N[C@@H](Cc1c[nH]c2ccccc12)C(=O)N[C@H](C(=O)N[C@@H](Cc1c[nH]c2ccccc12)C(=O)N[C@@H](CCC(=O)O)C(=O)O)C(C)C` [2cd] (H-RWVARRDYRFD[Dab](Methacryloyl)GFDYWVWE-OH): the EC50 on PD1:PDL1 interaction (setting [2]) amounted to 9.87 µM.

Consider `CSCC[C@H](NC(=O)[C@H](CC(=O)O)NC(=O)CNC(=O)[C@H](CCCNC(=N)N)NC(=O)[C@H](Cc1ccc(O)cc1)NC(=O)[C@H](CC(=O)O)NC(=O)[C@H](CCCNC(=N)N)NC(=O)[C@H](CCCNC(=N)N)NC(=O)[C@H](C)NC(=O)[C@@H](NC(=O)[C@H](Cc1c[nH]c2ccccc12)NC(=O)[C@@H](N)CCCNC(=N)N)C(C)C)C(=O)NCC(=O)N[C@@H](Cc1ccccc1)C(=O)N[C@@H](CC(=O)O)C(=O)N[C@@H](Cc1ccc(O)cc1)C(=O)N[C@@H](Cc1c[nH]c2ccccc12)C(=O)N[C@@H](Cc1cnc[nH]1)C(=O)N[C@@H](Cc1c[nH]c2ccccc12)C(=O)N[C@@H](CCC(=O)O)C(=O)O` [2d] (H-RWVARRDYRGDMGFDYWHWE-OH), for which the EC50 is 5.65 µM at PD1:PDL1 interaction (setting [2]) and over 5 µM on PD1:PDL1 interaction ([PD1•PDL1] blocking EC50, Fig. 3B, cut-off bars of congeneric pairs (Phe/Trp vs Gly), n = 3).

On to `CSCC[C@H](NC(=O)[C@H](CC(=O)O)NC(=O)[C@H](Cc1ccccc1)NC(=O)[C@H](CCCNC(=N)N)NC(=O)[C@H](Cc1ccc(O)cc1)NC(=O)[C@H](CC(=O)O)NC(=O)[C@H](CCCNC(=N)N)NC(=O)[C@H](CCCNC(=N)N)NC(=O)[C@H](C)NC(=O)[C@@H](NC(=O)[C@H](Cc1c[nH]c2ccccc12)NC(=O)[C@@H](N)CCCNC(=N)N)C(C)C)C(=O)NCC(=O)N[C@@H](Cc1ccccc1)C(=O)N[C@@H](CC(=O)O)C(=O)N[C@@H](Cc1ccc(O)cc1)C(=O)N[C@@H](Cc1c[nH]c2ccccc12)C(=O)N[C@@H](Cc1cnc[nH]1)C(=O)N[C@@H](Cc1c[nH]c2ccccc12)C(=O)N[C@@H](CCC(=O)O)C(=O)O` [2e] (H-RWVARRDYRFDMGFDYWHWE-OH), for which the EC50 at PD1:PDL1 interaction (setting [2]) amounted to 0.586 µM.

Regarding `CSCC[C@H](NC(=O)[C@H](CC(=O)O)NC(=O)[C@H](Cc1ccccc1)NC(=O)[C@H](CCCNC(=N)N)NC(=O)[C@H](Cc1ccc(O)cc1)NC(=O)[C@H](CC(=O)O)NC(=O)[C@H](CCCNC(=N)N)NC(=O)[C@H](CCCNC(=N)N)NC(=O)[C@H](CCCCN)NC(=O)[C@@H](NC(=O)[C@H](Cc1c[nH]c2ccccc12)NC(=O)[C@@H](N)CCCNC(=N)N)C(C)C)C(=O)NCC(=O)N[C@@H](Cc1ccccc1)C(=O)N[C@@H](CC(=O)O)C(=O)N[C@@H](Cc1ccc(O)cc1)C(=O)N[C@@H](Cc1c[nH]c2ccccc12)C(=O)N[C@H](C(=O)N[C@@H](Cc1c[nH]c2ccccc12)C(=O)N[C@@H](CCC(=O)O)C(=O)O)C(C)C` [2g] (H-RWVKRRDYRFDMGFDYWVWE-OH), on PD1:PDL1 interaction (setting [2]), the EC50 was found to be 0.078 µM.

For `CSCC[C@H](NC(=O)[C@H](CC(=O)O)NC(=O)CNC(=O)[C@H](CCCNC(=N)N)NC(=O)[C@H](Cc1ccc(O)cc1)NC(=O)[C@H](CC(=O)O)NC(=O)[C@H](CCCNC(=N)N)NC(=O)[C@H](CCCNC(=N)N)NC(=O)[C@@H](NC(=O)[C@@H](NC(=O)[C@H](Cc1c[nH]c2ccccc12)NC(=O)[C@@H](N)CCCNC(=N)N)C(C)C)C(C)C)C(=O)NCC(=O)N[C@@H](Cc1ccccc1)C(=O)N[C@@H](CC(=O)O)C(=O)N[C@@H](Cc1ccc(O)cc1)C(=O)N[C@@H](Cc1c[nH]c2ccccc12)C(=O)N[C@H](C(=O)N[C@@H](Cc1c[nH]c2ccccc12)C(=O)N[C@@H](CCC(=O)O)C(=O)O)C(C)C` [2h] (H-RWVVRRDYRGDMGFDYWVWE-OH), the EC50 on PD1:PDL1 interaction (setting [2]) amounted to 0.781 µM.

As to `CSCC[C@H](NC(=O)[C@H](CC(=O)O)NC(=O)[C@H](Cc1ccccc1)NC(=O)[C@H](CCCNC(=N)N)NC(=O)[C@H](Cc1ccc(O)cc1)NC(=O)[C@H](CC(=O)O)NC(=O)[C@H](CCCNC(=N)N)NC(=O)[C@H](CCCNC(=N)N)NC(=O)[C@@H](NC(=O)[C@@H](NC(=O)[C@H](Cc1c[nH]c2ccccc12)NC(=O)[C@@H](N)CCCNC(=N)N)C(C)C)C(C)C)C(=O)NCC(=O)N[C@@H](Cc1ccccc1)C(=O)N[C@@H](CC(=O)O)C(=O)N[C@@H](Cc1ccc(O)cc1)C(=O)N[C@@H](Cc1c[nH]c2ccccc12)C(=O)N[C@H](C(=O)N[C@@H](Cc1c[nH]c2ccccc12)C(=O)N[C@@H](CCC(=O)O)C(=O)O)C(C)C` [2i] (H-RWVVRRDYRFDMGFDYWVWE-OH), the EC50 on PD1:PDL1 interaction (setting [2]) is 0.07 µM.

On to “RWCAR-RDYRFDMGFD-YWGWE [Native, peptide 'Native', no fold by CD]”, for which, in series [1] (no hairpin exciton, no fit possible), the “fold by CD signature (in words)” value is recorded as “No fold”.

On to “RWVA-RGGGGKKGGFD-YWVWE [2a, bulged (B) β-hairpin model scaffold]”, for which the ΔGF0 in series [1] (CD-melt at 228±2 nm, individual two-state Gibbs-Helmholtz fit (Origin 9.0), 0-95 °C, phosphate buffer 15 mM pH 6.5 ± MeOH) was -0.90 ± 0.006 kcal/mol. Further, the Tm in series [1] (Table S5, individual fit, 228±2 nm) is recorded as 44.8 oC. Besides, the “Hairpin %-fold 291K” value in series [1] (Table S5, individual fit, 291 K) came to 87 ± 1%. Also, the “Hairpin %-fold 310K” value in series [1] (Table S5, individual fit, 310 K) amounted to 66 ± 1%. For the same compound, in series [1] (as E16), the “-TΔSF0” value was 9.87 ± 0.1 kcal/mol, the ΔCpF0 is -372 ± 10 cal.deg-1.mol-1 and the ΔHF0 was -10.8 ± 0.1 kcal/mol. In addition, the “melting temperature (TM) upshift vs regular hairpin 1a” value in series [1] (calculated from CD-melts) was “about 10 °C”. Besides, in series [1] (setting [3]), the “DHm, fitted value from OriginPro” value is -18.1854 kcal/mol and the “Tm, fitted value from OriginPro” value is recorded as 317.92 K.
